We go through 16 compounds from paper PMC10780165 (Molecules, 2023).

Counter-ions that a name gives are not always drawn. Like-named read-outs stand apart in the source and are kept apart here. Marks after values point to notes of the source that are not given here.

The target in assay [1] is T1, elAChE (electric eel AChE) (Electrophorus electricus, UniProt O42275).
T1 construct: purchased Sigma-Aldrich (Shanghai, PRC)
Conditions: after pre-incubation with the enzyme for 60 min; read-out: elAChE IC50 Mean ± SD; cited from earlier work.

Assay [2] concerns the target T2, eqBChE (Equus caballus, UniProt P81908).
T2 construct: BChE (equine serum BChE (eqBChE)); purchased Sigma-Aldrich (Shanghai, PRC); host or cells: equine serum
Conditions: same conditions, cited from earlier work.

The target of assay [3] is T2, eqBChE. Conditions: same conditions, cited from earlier work. The source holds these as a separate data set.
The test system of another assay is BChE. Conditions: cited from earlier work.
The subject of another assay is AChE. Conditions: cited from earlier work.
Assay [4] concerns the target T1, elAChE (electric eel AChE). In words: biochemical. The procedure: (§1) The inhibitory activities of the synthesized compounds on ChEs were evaluated utilizing elAChE and eqBChE.
(§2) The ChE inhibition abilities of the compounds were determined using a modified version of Ellman’s assay. All the experiments were conducted in 96-well plates, and the readings were obtained using an EnSpire Multimode 2300 plate reader (Perkin Elmer, MA, USA) or a multimode microplate reader (Berthold Technologies). elAChE, eqBChE, S-acetylthiocholine iodide (ATCh), S-butyrylthiocholine iodide (BTCh) and 5-5′-dithiobis (2-nitrobenzoic) acid (DTNB) were purchased from Sigma-Aldrich (Shanghai, PRC). ATCh and BTCh stock solutions were freshly prepared in water. A stock solution of DTNB (Ellman’s reagent) was prepared fresh in a sodium phosphate buffer (100 mM, pH 7, 0.15% NaHCO3 w/v). Stock solutions of drugs were prepared in a solution of acetonitrile and water (v:v = 1:9). The pH for the measurements was 8.
(§3) First, 25 μL aliquots of drug solutions at different concentrations were added to 200 μL of elAChE (0.04 U/mL) or eqBChE (0.1 U/mL) in a phosphate buffer (100 mM sodium phosphate buffer, pH 8), and the reaction system was pre-incubated at 37 °C for determined time periods. Then, 25 μL of a solution containing ATCh or BTCh (2.5 mM) and DTNB (3.4 mM) in the 100 mM sodium phosphate buffer was added to the reactions. Enzyme activity (vi) was determined by measuring the absorbance (412 nm) at 37 °C for 5 min. […] A sample containing phosphate buffer (pH 8) in place of the enzyme was analyzed for each drug concentration to account for the spontaneous conversion of the substrate into a product, and the values obtained were subtracted from each measured activity.
(§4) This method was based on the general measurement of ChE activity. […] The measurements were repeated three times for each concentration.

Assay [5] has as its target T3, eqBChE (equine serum BChE) (Equus caballus, UniProt P81908).
T3 construct: BChE (equine serum BChE (eqBChE)); purchased Sigma-Aldrich (Shanghai, PRC); host or cells: equine serum
In words: Modified Ellman's assay, IC50 for eqBChE. Conditions: for fold less effective eqBChE inhibitor than the meta-position derivative: para- vs meta-position carbamate: MTR-13 vs MTR-1, MTR-14 vs MTR-2, MTR-15 vs MTR-3. The assay is classed as biochemical. The procedure:
as §1, §2, §3, §4
A general note: DTNB colorimetry detects thiols as they appear.

Assay [6] concerns the target T2, eqBChE. The experiment in a line: Kinetic study of eqBChE inhibition, carbamylation rate constant kI. The assay is classed as biochemical, equine. Conditions: pre-incubation 1-45 min, seven concentrations, read-out: kI, second-order carbamylation rate constant, Mean ± SD (converted). The procedure: as §3
For assay [7], the target named is T2, eqBChE. The experiment in a line: Decarbamylation rate constant k3 of carbamylated eqBChE. Format: biochemical, equine.
Setting [8] is: elAChE IC50 Mean ± SD, after pre-incubation with the enzyme for 60 min, 37 °C, pH 8.
Where [9] appears, read: after pre-incubation with the enzyme for 60 min, 37 °C, pH 8, read-out: eqBChE IC50 Mean ± SD.
[10] abbreviates: after pre-incubation with the enzyme for 60 min, 37 °C, pH 8, read-out: elAChE IC50 Mean ± SD.

T3 sequence (P81908 whole entry): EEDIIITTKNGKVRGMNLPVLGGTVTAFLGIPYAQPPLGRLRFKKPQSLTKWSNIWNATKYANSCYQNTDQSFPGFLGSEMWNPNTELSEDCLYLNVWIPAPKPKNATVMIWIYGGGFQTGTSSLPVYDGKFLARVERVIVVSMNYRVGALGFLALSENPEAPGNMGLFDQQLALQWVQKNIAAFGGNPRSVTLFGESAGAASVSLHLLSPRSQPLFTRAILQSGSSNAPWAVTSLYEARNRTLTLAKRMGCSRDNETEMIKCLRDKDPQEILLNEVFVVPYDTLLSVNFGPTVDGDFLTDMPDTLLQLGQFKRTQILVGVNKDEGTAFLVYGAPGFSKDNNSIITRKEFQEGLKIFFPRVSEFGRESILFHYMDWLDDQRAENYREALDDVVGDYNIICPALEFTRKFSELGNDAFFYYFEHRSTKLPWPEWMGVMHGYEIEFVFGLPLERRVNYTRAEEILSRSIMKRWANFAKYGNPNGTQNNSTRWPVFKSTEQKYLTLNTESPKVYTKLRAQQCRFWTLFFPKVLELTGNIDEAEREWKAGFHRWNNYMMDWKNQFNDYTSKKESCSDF
T2 sequence (P81908 whole entry): as above
T1 sequence (O42275 24-633): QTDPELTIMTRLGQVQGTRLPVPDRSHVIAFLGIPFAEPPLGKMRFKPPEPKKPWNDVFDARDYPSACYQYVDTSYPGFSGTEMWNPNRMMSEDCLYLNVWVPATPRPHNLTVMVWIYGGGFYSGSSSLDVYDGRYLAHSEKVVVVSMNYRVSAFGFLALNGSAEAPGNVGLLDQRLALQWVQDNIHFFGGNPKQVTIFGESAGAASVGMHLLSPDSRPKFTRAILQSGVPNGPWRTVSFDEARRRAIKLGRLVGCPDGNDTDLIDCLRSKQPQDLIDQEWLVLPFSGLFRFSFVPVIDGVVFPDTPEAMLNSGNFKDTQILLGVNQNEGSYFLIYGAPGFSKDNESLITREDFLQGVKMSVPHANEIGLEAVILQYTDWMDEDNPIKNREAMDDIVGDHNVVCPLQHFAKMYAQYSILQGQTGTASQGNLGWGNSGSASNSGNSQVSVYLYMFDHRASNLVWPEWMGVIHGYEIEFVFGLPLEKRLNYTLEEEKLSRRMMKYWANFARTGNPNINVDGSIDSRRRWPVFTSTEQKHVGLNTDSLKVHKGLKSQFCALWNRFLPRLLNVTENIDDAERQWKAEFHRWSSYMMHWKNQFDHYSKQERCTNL

What is called IC50 is the concentration that gives 50% inhibition. On to `CN(C)C(=O)Oc1cc(OC(=O)N(C)C)cc(C(O)CNC(C)(C)C)c1` (stereo not shown) [Bambuterol], for which the IC50 in assay [1] is over 100000 nM; in the assay with BChE, 3 nM; in the assay with AChE, 30000 nM. Besides, the “kI (kI1), carbamylation rate constant, Mean ± SD” value on eqBChE [2] (listed as bambuterol) is 1.44 ± 0.02 ×10^5 M^−1 min^−1; on eqBChE [2], 1.44 ± 0.02 ^a ×10^5 M^−1 min^−1. Moreover, the “k3, decarbamylation rate constant, Mean ± SD” value on eqBChE [3] (listed as bambuterol) is 0.0839 ± 0.0028 h⁻¹; on eqBChE [3] it was 0.0839 ± 0.0028 ^a ×h^−1.
For the compound `CCN(C)C(=O)Oc1cccc(C(O)CNC(C)(C)C)c1` (stereo not shown) [MTR-1, 3-(2-(Tert-butylamino)-1-hydroxyethyl)phenyl ethyl(methyl)carbamate Hydrochloride], the IC50 in assay [4] (setting [8]) was over 100000 nM; in [5] (setting [9]) it was 370 ± 20 nM.
On the same counts, the results for `CCN(C)C(=O)Oc1cccc(C(O)CNC(C)(C)CC)c1` (stereo not shown) [MTR-2, 3-(1-Hydroxy-2-(tert-pentylamino)ethyl)phenyl Ethyl(methyl)carbamate hydrochloride] are over 100000 nM and 170 ± 10 nM.
For the compound `CCN(C)C(=O)Oc1cccc(C(O)CN2CCCCC2)c1` (stereo not shown) [MTR-3, 3-(1-Hydroxy-2-(piperidin-1-yl)ethyl)phenyl Ethyl(methyl)carbamate], the half-inhibitory concentration (IC50) in [4] (setting [10]) was over 100000 nM; in [4] (read-out: IC50(AChE)) it was over 100000 nM; in assay [5] (as printed in nM in abstract and text, read-out: IC50(BChE)), 78 nM. Besides, the kinact/KI on eqBChE [6] was 4630 M⁻¹ s⁻¹. Moreover, the “nature of BChE inhibition” value on eqBChE [7] (activity recovery after dilution) is “pseudo-irreversible”. For the same compound, at eqBChE [7] (eqBChE, N-methyl-N-ethyl-carbamylated, dilution 1:300, 37 °C, pH 8), the “k3, decarbamylation rate constant, Mean ± SD” value turned out to be 0.0093 ± 0.0010 h⁻¹.
On to `CCN(C)C(=O)Oc1cccc(C(O)CNC2CCCCC2)c1` (stereo not shown) [MTR-4, 3-(2-(Cyclohexylamino)-1-hydroxyethyl)phenyl Ethyl(methyl)carbamate], for which the values for the IC50 in assay [4] (setting [10]) and in [5] (setting [9]) were 79000 ± 4000 nM and 9 ± 0.4 nM, respectively.
In the case of `CCN(C)C(=O)Oc1cccc(C(O)CNC2CCCC2)c1` (stereo not shown) [MTR-5, 3-(2-(Cyclopentylamino)-1-hydroxyethyl)phenyl Ethyl(methyl)carbamate], the 50% inhibitory concentration (IC50) in assay [4] (setting [10]) was 92000 ± 7000 nM; in [5] (setting [9]), 74 ± 5 nM.
In the case of `CCN(C)C(=O)Oc1cccc(C(O)CN2CCOCC2)c1` (stereo not shown) [MTR-6, 3-(1-Hydroxy-2-morpholinoethyl)phenyl Ethyl(methyl)carbamate], the IC50 was over 100000 nM in assay [4] (setting [10]) and 2500 ± 200 nM in [5] (setting [9]).
On the same counts, the results for `CCN(C)C(=O)Oc1cccc(C(O)CN2CCCC2)c1` (stereo not shown) [MTR-7, 3-(1-Hydroxy-2-(pyrrolidin-1-yl)ethyl)phenyl Ethyl(methyl)carbamate] are 78900 ± 900 nM and 210 ± 10 nM.
Taken in the same sequence, the figures for `CCN(C)C(=O)Oc1cccc(C(O)CNc2ccccc2)c1` (stereo not shown) [MTR-8, 3-(1-Hydroxy-2-(phenylamino)ethyl)phenyl Ethyl(methyl)carbamate] were over 100000 nM and 320 ± 20 nM.
Taken in the same sequence, the figures for `CCN(C)C(=O)Oc1cccc(C(O)CNc2ccc(I)cc2)c1` (stereo not shown) [MTR-9, 3-(1-Hydroxy-2-((4-iodophenyl)amino)ethyl)phenyl Ethyl(methyl)carbamate] were over 100000 nM and 1730 ± 50 nM.
Take `CCN(C)C(=O)Oc1cccc(C(O)CNc2ccc(F)cc2)c1` (stereo not shown) [MTR-10, 3-(2-((4-Fluorophenyl)amino)-1-hydroxyethyl)phenyl Ethyl(methyl)carbamate]: the concentration for half-maximal inhibition (IC50) is over 100000 nM in assay [4] (setting [10]) and 192 ± 7 nM in [5] (setting [9]).
For `CCN(C)C(=O)Oc1cccc(C(O)CNC(C)(C)c2ccccc2)c1` (stereo not shown) [MTR-11, 3-(1-Hydroxy-2-((2-phenylpropan-2-yl)amino)ethyl)phenyl Ethyl(methyl)carbamate], the IC50 was over 100000 nM in assay [4] (setting [10]) and 323 ± 8 nM in assay [5] (setting [9]).
Taken in the same sequence, the figures for `C#Cc1cccc(NCC(O)c2cccc(OC(=O)N(C)CC)c2)c1` (stereo not shown) [MTR-12, 3-(2-((3-Ethynylphenyl)amino)-1-hydroxyethyl)phenyl Ethyl(methyl)carbamate] were over 100000 nM and 156 ± 7 nM.
Consider `CCN(C)C(=O)Oc1ccc(C(O)CNC(C)(C)C)cc1` (stereo not shown) [MTR-13, 4-(2-(Tert-butylamino)-1-hydroxyethyl)phenyl Ethyl(methyl)carbamate], for which the IC50 in assay [4] (setting [10]) is over 100000 nM; in [5] (setting [9]) it was 8700 ± 300 nM. Also, the “fold less effective eqBChE inhibitor than the meta-position derivative” value in assay [5] stood at 22 fold.
On to `CCN(C)C(=O)Oc1ccc(C(O)CNC(C)(C)CC)cc1` (stereo not shown) [MTR-14, 4-(1-Hydroxy-2-(tert-pentylamino)ethyl)phenyl Ethyl(methyl)carbamate], for which the IC50 in assay [4] (setting [10]) is over 100000 nM; in assay [5] (setting [9]) it was 1700 ± 100 nM. Further, the “fold less effective eqBChE inhibitor than the meta-position derivative” value in assay [5] is “ninefold”.
For `CCN(C)C(=O)Oc1ccc(C(O)CN2CCCCC2)cc1` (stereo not shown) [MTR-15, 4-(1-Hydroxy-2-(piperidin-1-yl)ethyl)phenyl Ethyl(methyl)carbamate], the concentration for half-maximal inhibition (IC50) in assay [4] (setting [10]) came to 59000 ± 16000 nM; in assay [5] (setting [9]), 420 ± 20 nM.
